In patent US9708308B2, “Factor IXa inhibitors” (Merck Sharp & Dohme Corp., priority 2012, dated 2017):
pIC50: −log10 of the molar value.

Target: Factor IXa (Homo sapiens, UniProt P00740)
Assay: Determination of inhibitory activity against Factor IXa (cleavage of fluorescent peptide substrate)
Assay type: biochemical
Settings: cleavage of fluorescent peptide CH3SO2-D-CHG-Gly-Arg-AFC, release of AFC; read-out: FIXa IC50
How it was run: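 Factor IXa activity followed via cleavage of CH3SO2-D-CHG-Gly-Arg-AFC, releasing AFC. Fluorescence read at excitation 405 nm, emission 510 nm.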

Factor IXa, sequence (P00740 227-461 limits assumed): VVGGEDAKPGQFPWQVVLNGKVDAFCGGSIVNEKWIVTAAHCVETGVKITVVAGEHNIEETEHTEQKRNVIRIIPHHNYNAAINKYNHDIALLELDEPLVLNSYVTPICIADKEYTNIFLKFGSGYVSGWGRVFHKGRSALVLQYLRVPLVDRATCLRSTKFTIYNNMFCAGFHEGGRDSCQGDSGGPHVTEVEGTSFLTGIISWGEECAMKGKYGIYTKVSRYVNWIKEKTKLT
Factor IXa, sequence (P00740 47-191 partner limits assumed): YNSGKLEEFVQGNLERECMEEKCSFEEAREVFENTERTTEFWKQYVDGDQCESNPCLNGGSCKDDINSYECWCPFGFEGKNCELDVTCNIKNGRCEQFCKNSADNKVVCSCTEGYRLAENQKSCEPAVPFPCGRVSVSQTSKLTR

SMILES	pIC50
C[C@](O)(C(=O)Nc1cc(Cl)c2c(N)noc2c1)[C@H]1OCCN(c2nn(-c3cnnc(C#N)c3)cc2F)C1=O [Example 124, (R)—N-(3-amino-4-chlorobenzo[d]isoxazol-6-yl)-2-((R)-4-(1-(6-cyanopyridazin-4-yl)-4-fluoro-1H-pyrazol-3-yl)-3-oxomorpholin-2-yl)-2-hydroxypropanamide]	6.80
C[C@]1([C@@H](O)C(=O)Nc2cc(Cl)c3c(N)noc3c2)OCCN(c2ccn(-c3ccc(S(C)(=O)=O)cc3)n2)C1=O [Example 127, (R)—N-(3-amino-4-chlorobenzo[d]isoxazol-6-yl)-2-hydroxy-2-((R)-2-methyl-4-(1-(4-(methylsulfonyl)phenyl)-1H-pyrazol-3-yl)-3-oxomorpholin-2-yl)acetamide]	6.13
C[C@]1([C@@H](O)C(=O)Nc2cc(Cl)c3c(N)noc3c2)OCCN(c2ccn(-c3ccncc3)n2)C1=O [Example 128, (R)—N-(3-amino-4-chlorobenzo[d]isoxazol-6-yl)-2-hydroxy-2-((R)-2-methyl-3-oxo-4-(1-(pyridin-4-yl)-1H-pyrazol-3-yl)morpholin-2-yl)acetamide]	6.65
Cc1cc(-n2ccc(N3CCO[C@H]([C@@](C)(O)C(=O)Nc4cc(F)c5c(N)noc5c4)C3=O)n2)ccn1 [Example 130, (R)—N-(3-amino-4-fluorobenzo[d]isoxazol-6-yl)-2-hydroxy-2-((R)-4-(1-(2-methylpyridin-4-yl)-1H-pyrazol-3-yl)-3-oxomorpholin-2-yl)propanamide]	6.68
C[C@](O)(C(=O)Nc1cc(F)c2c(N)noc2c1)[C@H]1OCCN(c2ccn(-c3ccnc(C(F)(F)F)c3)n2)C1=O [Example 131, (R)—N-(3-amino-4-fluorobenzo[d]isoxazol-6-yl)-2-hydroxy-2-((R)-3-oxo-4-(1-(2-(trifluoromethyl)pyridin-4-yl)-1H-pyrazol-3-yl)morpholin-2-yl)propanamide]	7.02
C[C@](O)(C(=O)Nc1cc(F)c2c(N)noc2c1)[C@H]1OCCN(c2ccn(-c3ccnc(C#N)c3)n2)C1=O [Example 132, (R)—N-(3-amino-4-fluorobenzo[d]isoxazol-6-yl)-2-((R)-4-(1-(2-cyanopyridin-4-yl)-1H-pyrazol-3-yl)-3-oxomorpholin-2-yl)-2-hydroxypropanamide]	6.93
COc1cc(-n2ccc(N3CCO[C@H]([C@@](C)(O)C(=O)Nc4cc(F)c5c(N)noc5c4)C3=O)n2)ccn1 [Example 133, (R)—N-(3-amino-4-fluorobenzo[d]isoxazol-6-yl)-2-hydroxy-2-((R)-4-(1-(2-methoxypyridin-4-yl)-1H-pyrazol-3-yl)-3-oxomorpholin-2-yl)propanamide]	6.56
C[C@](O)(C(=O)Nc1cc(F)c2c(N)noc2c1)[C@H]1OCCN(c2nn(-c3ccncc3)cc2F)C1=O [Example 134, (R)—N-(3-amino-4-fluorobenzo[d]isoxazol-6-yl)-2-((R)-4-(4-fluoro-1-(pyridin-4-yl)-1H-pyrazol-3-yl)-3-oxomorpholin-2-yl)-2-hydroxypropanamide]	7.26
CC(C)Oc1cc(-n2ccc(N3CCO[C@H]([C@@](C)(O)C(=O)Nc4cc(F)c5c(N)noc5c4)C3=O)n2)cnn1 [Example 137, (R)—N-(3-amino-4-fluorobenzo[d]isoxazol-6-yl)-2-hydroxy-2-((R)-4-(1-(6-isopropoxypyridazin-4-yl)-1H-pyrazol-3-yl)-3-oxomorpholin-2-yl)propanamide]	6.72
COc1nccc(-n2ccc(N3CCO[C@H]([C@@](C)(O)C(=O)Nc4cc(F)c5c(N)noc5c4)C3=O)n2)n1 [Example 141, (R)—N-(3-amino-4-fluorobenzo[d]isoxazol-6-yl)-2-hydroxy-2-((R)-4-(1-(2-methoxypyrimidin-4-yl)-1H-pyrazol-3-yl)-3-oxomorpholin-2-yl)propanamide]	6.97
C[C@](O)(C(=O)Nc1cnc2c(N)noc2c1)[C@H]1OCCN(c2ccn(-c3ccncc3)n2)C1=O [Example 144, (R)—N-(3-aminoisoxazolo[4,5-b]pyridin-6-yl)-2-hydroxy-2-((R)-3-oxo-4-(1-(pyridin-4-yl)-1H-pyrazol-3-yl)morpholin-2-yl)propanamide]	6.34
COc1cc(-n2ccc(N3CCO[C@H]([C@@](C)(O)C(=O)Nc4ccc5[nH]c(C)c(Cl)c5c4)C3=O)n2)ccn1 [Example 145, (R)—N-(3-chloro-2-methyl-1H-indol-5-yl)-2-hydroxy-2-((R)-4-(1-(2-methoxypyridin-4-yl)-1H-pyrazol-3-yl)-3-oxomorpholin-2-yl)propanamide]	5.96
C[C@](O)(C(=O)Nc1ccc2c(N)noc2c1)[C@@]1(C)OCCN(c2ccn(-c3ccnnc3)n2)C1=O [Example 148, (R)—N-(3-Aminobenzo[d]isoxazol-6-yl)-2-hydroxy-2-((R)-2-methyl-3-oxo-4-(1-(pyridazin-4-yl)-1H-pyrazol-3-yl)morpholin-2-yl)propanamide]	7.20
COc1cc(-n2ccc(N3CCO[C@](C)([C@@](C)(O)C(=O)Nc4ccc5c(N)noc5c4)C3=O)n2)cnn1 [Example 149, (R)—N-(3-aminobenzo[d]isoxazol-6-yl)-2-hydroxy-2-((R)-4-(1-(6-methoxypyridazin-4-yl)-1H-pyrazol-3-yl)-2-methyl-3-oxomorpholin-2-yl)propanamide]	7.03
C[C@](O)(C(=O)Nc1ccc(CN)cc1)[C@H]1OCCN(c2ccn(-c3ccncc3)n2)C1=O [Example 150, (R)—N-(4-(aminomethyl)phenyl)-2-hydroxy-2-((R)-3-oxo-4-(1-(pyridin-4-yl)-1H-pyrazol-3-yl)morpholin-2-yl)propanamide]	7.18

The next compounds have a higher pIC50 than those just listed; values first:

pIC50	SMILES
7.66	C[C@](O)(C(=O)Nc1cc(Cl)c2c(N)noc2c1)[C@H]1OCCN(c2nn(-c3ccnnc3)cc2F)C1=O [Example 123, (R)—N-(3-amino-4-chlorobenzo[d]isoxazol-6-yl)-2-((R)-4-(4-fluoro-1-(pyridazin-4-yl)-1H-pyrazol-3-yl)-3-oxomorpholin-2-yl)-2-hydroxypropanamide]
7.35	COc1cc(-n2cc(F)c(N3CCO[C@H]([C@@](C)(O)C(=O)Nc4cc(Cl)c5c(N)noc5c4)C3=O)n2)cnn1 [Example 125, (R)—N-(3-amino-4-chlorobenzo[d]isoxazol-6-yl)-2-((R)-4-(4-fluoro-1-(6-methoxypyridazin-4-yl)-1H-pyrazol-3-yl)-3-oxomorpholin-2-yl)-2-hydroxypropanamide]
7.50	C[C@](O)(C(=O)Nc1cc(Cl)c2c(N)noc2c1)[C@H]1OCCN(c2nn(-c3cnnc(C(F)(F)F)c3)cc2F)C1=O [Example 126, (R)—N-(3-amino-4-chlorobenzo[d]isoxazol-6-yl)-2-((R)-4-(4-fluoro-1-(6-(trifluoromethyl)pyridazin-4-yl)-1H-pyrazol-3-yl)-3-oxomorpholin-2-yl)-2-hydroxypropanamide]
7.30	C[C@](O)(C(=O)Nc1cc(F)c2c(N)noc2c1)[C@H]1OCCN(c2ccn(-c3ccncc3)n2)C1=O [Example 129, (R)—N-(3-amino-4-fluorobenzo[d]isoxazol-6-yl)-2-hydroxy-2-((R)-3-oxo-4-(1-(pyridin-4-yl)-1H-pyrazol-3-yl)morpholin-2-yl)propanamide]
7.99	C[C@](O)(C(=O)Nc1cc(F)c2c(N)noc2c1)[C@H]1OCCN(c2ccn(-c3ccnnc3)n2)C1=O [Example 135, (R)—N-(3-amino-4-fluorobenzo[d]isoxazol-6-yl)-2-hydroxy-2-((R)-3-oxo-4-(1-(pyridazin-4-yl)-1H-pyrazol-3-yl)morpholin-2-yl)propanamide]
7.27	C[C@](O)(C(=O)Nc1cc(F)c2c(N)noc2c1)[C@H]1OCCN(c2ccn(-c3cnnc(N4CCC4)c3)n2)C1=O [Example 136, (R)—N-(3-amino-4-fluorobenzo[d]isoxazol-6-yl)-2-((R)-4-(1-(6-(azetidin-1-yl)pyridazin-4-yl)-1H-pyrazol-3-yl)-3-oxomorpholin-2-yl)-2-hydroxypropanamide]
8.15	C[C@](O)(C(=O)Nc1cc(F)c2c(N)noc2c1)[C@H]1OCCN(c2ccn(-c3cnnc(C#N)c3)n2)C1=O [Example 138, (R)—N-(3-amino-4-fluorobenzo[d]isoxazol-6-yl)-2-((R)-4-(1-(6-cyanopyridazin-4-yl)-1H-pyrazol-3-yl)-3-oxomorpholin-2-yl)-2-hydroxypropanamide]
7.85	COc1cc(-n2ccc(N3CCO[C@H]([C@@](C)(O)C(=O)Nc4cc(F)c5c(N)noc5c4)C3=O)n2)cnn1 [Example 139, (R)—N-(3-amino-4-fluorobenzo[d]isoxazol-6-yl)-2-hydroxy-2-((R)-4-(1-(6-methoxypyridazin-4-yl)-1H-pyrazol-3-yl)-3-oxomorpholin-2-yl)propanamide]
8.25	C[C@](O)(C(=O)Nc1cc(F)c2c(N)noc2c1)[C@H]1OCCN(c2nn(-c3ccnnc3)cc2F)C1=O [Example 140, (R)—N-(3-amino-4-fluorobenzo[d]isoxazol-6-yl)-2-((R)-4-(4-fluoro-1-(pyridazin-4-yl)-1H-pyrazol-3-yl)-3-oxomorpholin-2-yl)-2-hydroxypropanamide]
8.20	C[C@]1([C@@H](O)C(=O)Nc2cc(F)c3c(N)noc3c2)OCCN(c2ccn(-c3ccnnc3)n2)C1=O [Example 142, (R)—N-(3-amino-4-fluorobenzo[d]isoxazol-6-yl)-2-hydroxy-2-((R)-2-methyl-3-oxo-4-(1-(pyridazin-4-yl)-1H-pyrazol-3-yl)morpholin-2-yl)acetamide]
7.66	COc1nccc(-n2ccc(N3CCO[C@](C)([C@@H](O)C(=O)Nc4cc(F)c5c(N)noc5c4)C3=O)n2)n1 [Example 143, (R)—N-(3-amino-4-fluorobenzo[d]isoxazol-6-yl)-2-hydroxy-2-((R)-4-(1-(2-methoxypyrimidin-4-yl)-1H-pyrazol-3-yl)-2-methyl-3-oxomorpholin-2-yl)acetamide]
7.55	Cc1[nH]c2ccc(NC(=O)[C@](C)(O)[C@H]3OCCN(c4ccn(-c5ccnnc5)n4)C3=O)cc2c1Cl [Example 146, (R)—N-(3-chloro-2-methyl-1H-indol-5-yl)-2-hydroxy-2-((R)-3-oxo-4-(1-(pyridazin-4-yl)-1H-pyrazol-3-yl)morpholin-2-yl)propanamide]
